Results reported in PubChem BioAssay AID1963844 (Molecular Pharmacology Branch, DTP, NCI, 2024).

Tested on: 422866-222-R5-J1-PDC complex spheroid viability
Test: Anticancer human tumor 422866-222-R5-J1-PDC patient-derived pancreatic adenocarcinoma cell line growth inhibition [POLQ]
Conditions: for IC50: curve of first compound; for viability, T/C: stronger effect = lower value
Procedure: Multicellular complex tumor spheroid response to Polymerase (POL) inhibitors (novobiocin, ART-558, RP6685) in combination with a variety of drugs and investigational agents in selected tumor cell lines
The POL inhibitors (novobiocin, ART-558, and RP6685) were evaluated both individually and in combination with standard of care and investigational anticancer small molecules within a complex spheroid model of solid tumors. . Complex spheroids include a stromal component modeled by human endothelial cells (HUVEC) and fibroblasts modeled by human mesenchymal stem cells (MSCs). The concentration ranges selected for each drug and investigational agent were based upon clinically achievable concentrations if the clinical Cmax of the agent was known.
Compounds. The drugs and investigational agents: novobiocin (NSC847541), ART-558 (NSC835418), RP-6685 (NSC848927), peposertib (NSC802822), ceralasertib (NSC780249), elimusertib (NSC800525), camonsertib (NSC841442), AZD-1390 (NSC803789), olaparib (NSC753686), talazoparib (NSC767125), rucaparib (NSC756644), sotorasib (NSC818433), MRTX-1133 (NSC836407), SN-38 (NSC673596), topotecan (NSC609699), epotoside (NSC141540), doxorubicin (NSC123127), gemcitabine (NSC613327), 5-fluorouracil (NSC19893), paclitaxel (NSC125973), vemurafenib (NSC761431), MSA-2 (NSC828583), SN-011 (NSC837082), adavosertib (NSC754352), prexasertib (NSC758257), carboplatin (NSC241240) and oxaliplatin (NSC266046), were obtained from the National Cancer Institute (NCI) Developmental Therapeutics Program Chemical Repository (21). The FDA-approved anticancer drug set is available from the Developmental Therapeutics Program at https://dtp.cancer.gov/organization/dscb/obtaining/. […] The stock solutions were prepared in dimethyl sulfoxide (DMSO, Sigma-Aldrich, St. Louis, MO, cat. D2650), except for the platinum compounds which were prepared in saline (Quality Biological, Gaithersburg, MD, cat. 114-055-101), at 800-fold the tested concentration and stored at -70 degrees C prior to their use. All drugs and investigational agents were tested over a range starting from a high concentration at or near the clinical Cmax and decreasing in half-log increments. If the clinical Cmax for an agent had not been determined, the highest concentration tested was 10 microM, except for SN-38, which was tested at a high concentration of 1 microM.
Cell Culture. All cells were maintained in an incubator at 37 degrees C and 5% CO2 with 95% humidity. The PDC lines were cultured according to standard operating procedures established by the NCI PDMR (https://pdmr.cancer.gov). Table 3 of the manuscript, lists the cell lines along with the number of the three cell types plated to form the mct-spheroids and media for tumor cell growth. After thawing, all PDC lines, except 997537-175-T-J1-PDC and 415267-285-R-J2-PDC, were cultured in Matrigel-coated flasks prepared with a working solution of 1X Ham's F-12 nutrient mix, without supplementation (Thermo Fisher Scientific, cat. 11765054), 100 U/mL penicillin-streptomycin (Thermo Fisher Scientific, cat. 15140122), and 2.5% Matrigel (Corning Inc., Corning, NY, cat. 354248) for the first three passages. The two PDC lines 997537-175-T-J1-PDC and 415267-285-R-J2-PDC were cultured on uncoated flasks. The 857933-349-R-J2-PDC line was cultured in 6C/Colon 1B media containing advanced DMEM/F-12 (Thermo Fisher Scientific, cat. 12634028), 10 mM HEPES (Thermo Fisher Scientific, cat. 15630080), 1X GlutaMAX supplement (Thermo Fisher Scientific, cat. 35050061), 0.1 mg/mL primocin (InvivoGen, San Diego, CA, cat. ant-pm-2), 10% defined fetal bovine serum, heat inactivated (HyClone Laboratories Inc., Logan, UT, cat. SH30070.03HI), 50% L-WRN conditioned media (ATCC, cat. CRL-3276), 1.25 mM N-Acetyl-L-cysteine (Sigma-Aldrich, cat. A9165), 10 mM nicotinamide (Sigma-Aldrich, cat. N0636), 1X B-27 supplement (Thermo Fisher Scientific, cat. 17504044), 1X N-2 supplement (Thermo Fisher Scientific, cat. […]

[1] = second compound 0.0316 µM, first compound 0.0316 µM
[2] = second compound 0.0316 µM, first compound 0.1 µM
[3] = second compound 0.1 µM, first compound 0.0316 µM
[4] = second compound 0.1 µM, first compound 0.1 µM
[5] = second compound 0.316 µM, first compound 0.0316 µM
[6] = second compound 0.316 µM, first compound 0.1 µM
[7] = second compound 1 µM, first compound 0.0316 µM
[8] = second compound 1 µM, first compound 0.1 µM
[9] = second compound 3.16 µM, first compound 0.0316 µM
[10] = second compound 3.16 µM, first compound 0.1 µM
[11] = second compound 10 µM, first compound 0.0316 µM
[12] = second compound 10 µM, first compound 0.1 µM
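Note: spheroids exposed to compounds for one week before readout.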
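Throughout, for viability, T/C: percent of DMSO vehicle wells luminescence so 100% = untreated viability.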

`COc1cc(C2c3cc4c(cc3C(OC3OC5COC(C)OC5C(O)C3O)C3COC(=O)C23)OCO4)cc(OC)c1O` (centres undefined) + COC1C(OC(N)=O)C(O)C(Oc2ccc3c(O)c(NC(=O)c4ccc(O)c(CC=C(C)C)c4)c(=O)oc3c2C)OC1(C)C was tested, and the IC50 (second compound 0.0316 µM) was 1330 nM, the IC50 (second compound 0.1 µM) was 966 nM and the IC50 (second compound 0.316 µM) was 770 nM. It also gave an IC50 (second compound 1 µM) of 1070 nM, an IC50 (second compound 3.16 µM) of 854 nM and an IC50 (second compound 10 µM) of 715 nM. It also gave a viability, T/C [1] of 97.7%, a viability, T/C [2] of 95% and a viability, T/C (second compound 0.0316 µM, first compound 0.316 µM) of 72.5%. The viability, T/C (second compound 0.0316 µM, first compound 1 µM) was 51.3%, the viability, T/C (second compound 0.0316 µM, first compound 3.16 µM) was 45.4% and the viability, T/C (second compound 0.0316 µM, first compound 10 µM) was 31.5%. The viability, T/C [3] was 103%, the viability, T/C [4] was 94.7% and the viability, T/C (second compound 0.1 µM, first compound 0.316 µM) was 73.5%. The viability, T/C (second compound 0.1 µM, first compound 1 µM) was 49.3%, the viability, T/C (second compound 0.1 µM, first compound 3.16 µM) was 38.2% and the viability, T/C (second compound 0.1 µM, first compound 10 µM) was 36.4%. The viability, T/C [5] was 101%, the viability, T/C [6] was 98.6% and the viability, T/C (second compound 0.316 µM, first compound 0.316 µM) was 61.8%. It also gave a viability, T/C (second compound 0.316 µM, first compound 1 µM) of 51.4%, a viability, T/C (second compound 0.316 µM, first compound 3.16 µM) of 35.7% and a viability, T/C (second compound 0.316 µM, first compound 10 µM) of 34.9%. For the same compound, the viability, T/C [7] was 109%, the viability, T/C [8] was 93.2% and the viability, T/C (second compound 1 µM, first compound 0.316 µM) was 85.5%. It also gave a viability, T/C (second compound 1 µM, first compound 1 µM) of 48.3%, a viability, T/C (second compound 1 µM, first compound 3.16 µM) of 38% and a viability, T/C (second compound 1 µM, first compound 10 µM) of 32.7%. The viability, T/C [9] was 87.2%, the viability, T/C [10] was 88.3% and the viability, T/C (second compound 3.16 µM, first compound 0.316 µM) was 82.4%. For the same compound, the viability, T/C (second compound 3.16 µM, first compound 1 µM) was 44.8%, the viability, T/C (second compound 3.16 µM, first compound 3.16 µM) was 39.4% and the viability, T/C (second compound 3.16 µM, first compound 10 µM) was 35.5%. For the same compound, the viability, T/C [11] was 96.1%, the viability, T/C [12] was 101% and the viability, T/C (second compound 10 µM, first compound 0.316 µM) was 64.4%. For the same compound, the viability, T/C (second compound 10 µM, first compound 1 µM) was 51%, the viability, T/C (second compound 10 µM, first compound 3.16 µM) was 41.3% and the viability, T/C (second compound 10 µM, first compound 10 µM) was 36.7%.

With `Cn1ncnc1[C@H]1c2n[nH]c(=O)c3cc(F)cc(c23)N[C@@H]1c1ccc(F)cc1` + COC1C(OC(N)=O)C(O)C(Oc2ccc3c(O)c(NC(=O)c4ccc(O)c(CC=C(C)C)c4)c(=O)oc3c2C)OC1(C)C the IC50 (second compound 0.0316 µM) was over 100 nM, the IC50 (second compound 0.1 µM) was over 100 nM and the IC50 (second compound 0.316 µM) was over 100 nM. The IC50 (second compound 1 µM) was over 100 nM, the IC50 (second compound 3.16 µM) was over 100 nM and the IC50 (second compound 10 µM) was over 100 nM. The viability, T/C (second compound 0.0316 µM, first compound 0.000316 µM) was 108%, the viability, T/C (second compound 0.0316 µM, first compound 0.001 µM) was 100% and the viability, T/C (second compound 0.0316 µM, first compound 0.00316 µM) was 90%. The viability, T/C (second compound 0.0316 µM, first compound 0.01 µM) was 88.6%, the viability, T/C [1] was 86.6% and the viability, T/C [2] was 83.1%. The viability, T/C (second compound 0.1 µM, first compound 0.000316 µM) was 119%, the viability, T/C (second compound 0.1 µM, first compound 0.001 µM) was 87.2% and the viability, T/C (second compound 0.1 µM, first compound 0.00316 µM) was 104%. The viability, T/C (second compound 0.1 µM, first compound 0.01 µM) was 87%, the viability, T/C [3] was 88.5% and the viability, T/C [4] was 90.3%. The viability, T/C (second compound 0.316 µM, first compound 0.000316 µM) was 96.1%, the viability, T/C (second compound 0.316 µM, first compound 0.001 µM) was 104% and the viability, T/C (second compound 0.316 µM, first compound 0.00316 µM) was 98.8%. It also gave a viability, T/C (second compound 0.316 µM, first compound 0.01 µM) of 78.9%, a viability, T/C [5] of 87.3% and a viability, T/C [6] of 85.3%. For the same compound, the viability, T/C (second compound 1 µM, first compound 0.000316 µM) was 99%, the viability, T/C (second compound 1 µM, first compound 0.001 µM) was 110% and the viability, T/C (second compound 1 µM, first compound 0.00316 µM) was 100%. The viability, T/C (second compound 1 µM, first compound 0.01 µM) was 85.4%, the viability, T/C [7] was 89.6% and the viability, T/C [8] was 86.6%. It also gave a viability, T/C (second compound 3.16 µM, first compound 0.000316 µM) of 98%, a viability, T/C (second compound 3.16 µM, first compound 0.001 µM) of 87.1% and a viability, T/C (second compound 3.16 µM, first compound 0.00316 µM) of 105%. The viability, T/C (second compound 3.16 µM, first compound 0.01 µM) was 100%, the viability, T/C [9] was 89.8% and the viability, T/C [10] was 95.6%. It also gave a viability, T/C (second compound 10 µM, first compound 0.000316 µM) of 78.8%, a viability, T/C (second compound 10 µM, first compound 0.001 µM) of 86.2% and a viability, T/C (second compound 10 µM, first compound 0.00316 µM) of 97.1%. The viability, T/C (second compound 10 µM, first compound 0.01 µM) was 92.3%, the viability, T/C [11] was 88.7% and the viability, T/C [12] was 87.7%.
